Source: patent publication US11248234B2, “Herbicide-resistant hydroxyphenylpyruvate dioxygenases” (BASF SE, priority 2015, dated 2022)

Legend:
[1] = target: Scenedesmus HPPD (Seq ID: 2) (Tetradesmus obliquus, UniProt A0A383WMN4, N195D); test: In vitro HPPD activity assay; format: biochemical
Experimental: (§1) HPPD produces homogentisic acid and CO2 from 4-hydroxyphenylpyruvate (4-HPP) and O2. The activity assay for HPPD is based on the analysis of homogentisic acid by reversed phase HPLC.
(§2) The assay mixture can contain 150 mM potassium phosphate buffer pH 7.0, 50 mM L-ascorbic acid, 100 μM Catalase (Sigma-Aldrich), 1 μM FeSO4 and 0.2 units of purified mutated HPPD enzyme in a total volume of 505 μl. 1 unit is defined as the amount of enzyme that is required to produce 1 nmol of HGA per minute at 20° C.
(§3) After a preincubation of 30 min the reaction is started by adding 4-HPP to a final concentration of 0.05 mM. The reaction is allowed to proceed for 45 min at room temperature. The reaction is stopped by the addition of 50 μl of 4.5 M phosphoric acid. The sample is filtered using a […] pore size PVDF filtration device.
(§4) 5 μl of the cleared sample is analyzed on an UPLC HSS T3 column (particle size 1.8 μm, dimensions 2.1×50 mm; Waters) by isocratic elution using 90% 20 mM NaH2PO4 pH 2.2, 10% methanol (v/v).
(§5) HGA is detected electrochemically at 750 mV (mode: DC; polarity: positive) and quantified by integrating peak areas (Empower software; Waters).
(§6) Inhibitors are dissolved in DMSO (dimethylsulfoxide) to a concentration of 0.5 mM. From this stock solution serial five-fold dilutions are prepared in DMSO, which are used in the assay. The respective inhibitor solution accounts for 1% of the assay volume. Thus, final inhibitor concentrations range from 5 μM to 320 pM, respectively. Activities are normalized by setting the uninhibited enzyme activity to 100%. IC50 values are calculated using non-linear regression.
(§7) Using methods which are described in the above examples or well known in the art, purified, recombinant mutated HPPD enzymes are characterized with respect to their kinetic properties and sensitivity towards HPPD inhibiting herbicides. Apparent michaelis constants (Km) and maximal reaction velocities (Vmax) are calculated by non-linear regression with the software GraphPad Prism 5 (GraphPad Software, La Jolla, USA) using a substrate inhibition model. Apparent kcat values are calculated from Vmax assuming 100% purity of the enzyme preparation. Weighted means (by standard error) of Km and IC50 values are calculated from at least three independent experiments. The Cheng-Prusoff equation for competitive inhibition (Cheng, Y. C.; Prusoff, W. H. Biochem Pharmacol 1973, 22, 3099-3108) is used to calculate dissociation constants (Ki).
(§8) Field performance of the HPPD enzyme, which is used as a herbicide tolerance trait may depend not only on its lack of sensitivity towards HPPD inhibiting herbicides but also on its activity. To assess the potential performance of a herbicide tolerance trait a tolerance index (TI) is calculated using the following formula: […]
(§9) Easy comparison and ranking of each trait is enabled by normalizing tolerance indexes on Arabidopsis wild-type HPPD.

[2] = target: Scenedesmus Short HPPD (Seq ID: 4) (Tetradesmus obliquus, UniProt A0A383WMN4, DEL398-433/N195D); test: In vitro HPPD activity assay; format: biochemical
Sequence of Scenedesmus Short HPPD (Seq ID: 4) (A0A383WMN4 entry or part of it N195D/DEL398-433): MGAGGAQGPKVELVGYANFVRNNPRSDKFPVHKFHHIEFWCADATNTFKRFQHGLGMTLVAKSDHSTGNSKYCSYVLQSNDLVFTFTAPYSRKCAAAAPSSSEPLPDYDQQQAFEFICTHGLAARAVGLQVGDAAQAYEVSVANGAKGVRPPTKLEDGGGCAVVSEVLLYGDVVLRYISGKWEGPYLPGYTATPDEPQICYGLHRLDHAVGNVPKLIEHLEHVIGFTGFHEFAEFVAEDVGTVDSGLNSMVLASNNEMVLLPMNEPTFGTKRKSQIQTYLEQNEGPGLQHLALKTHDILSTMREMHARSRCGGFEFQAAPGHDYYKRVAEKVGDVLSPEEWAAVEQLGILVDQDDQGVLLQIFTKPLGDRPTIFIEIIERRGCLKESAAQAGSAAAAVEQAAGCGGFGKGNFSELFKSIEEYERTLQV
Experimental: as §1, §2, §3, §4, §5, §6, §7, §8, §9

[3] = target: T1, Arabidopsis HPPD (Seq ID: 42) (Arabidopsis thaliana, UniProt P93836); test: In vitro HPPD activity assay (homogentisic acid by HPLC); format: biochemical
T1 construct: His6; made in house; host or cells: E. coli BL21 (DE3)
T1 sequence (P93836 1-445): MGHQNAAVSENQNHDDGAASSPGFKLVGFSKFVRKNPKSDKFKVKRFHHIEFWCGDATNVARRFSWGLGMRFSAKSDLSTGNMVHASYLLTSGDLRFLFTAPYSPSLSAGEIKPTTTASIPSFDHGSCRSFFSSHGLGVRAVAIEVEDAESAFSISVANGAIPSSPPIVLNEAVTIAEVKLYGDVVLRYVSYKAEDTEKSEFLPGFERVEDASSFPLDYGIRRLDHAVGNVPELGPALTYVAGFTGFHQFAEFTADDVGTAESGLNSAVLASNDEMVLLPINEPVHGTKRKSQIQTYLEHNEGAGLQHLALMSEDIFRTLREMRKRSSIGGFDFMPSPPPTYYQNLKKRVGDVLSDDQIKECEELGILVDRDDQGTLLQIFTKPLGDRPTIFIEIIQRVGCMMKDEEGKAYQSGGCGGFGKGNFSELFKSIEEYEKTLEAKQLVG
Experimental: as §1, §2, §3, §4, §5
as §6, with “Thus, final inhibitor concentrations range from 5 μM to 320 pM, respectively.” left out
as §7, with “Apparent kcat values are calculated from Vmax assuming 100% purity of the enzyme preparation.” left out, “experiments.” for “experiments. The Cheng-Prusoff equation for competitive inhibition (Cheng, Y. C.; Prusoff, W. H. Biochem Pharmacol 1973, 22, 3099-3108) is used to calculate dissociation constants (Ki).”
as §8, §9

[4] = tested on: WT (non-transgenic control) Arabidopsis plants; test: Greenhouse spray test, injury evaluation; format: in vivo, Arabidopsis thaliana; settings: 14 DAT
Experimental: (§10) Non-transgenic control plants were treated in parallel and pictures taken 14 days after treatment.
(§11) For post emergence treatment, the test plants are first grown to a height of 3 to 15 cm, depending on the plant habit, and only then treated with the herbicides. For this purpose, the test plants are either sown directly and grown in the same containers, or they are first grown separately and transplanted into the test containers a few days prior to treatment.
(§12) Additionally, T1 and T2 transgenic Arabidopsis plants can be tested for improved tolerance to HPPD-inhibiting herbicides in greenhouse studies. Herbicide injury scoring is done 2-3 weeks after treatment and is rated on a scale of 0 to 100%, 0% being no injury and 100% being complete death.
(§13) Transgenic T2 Arabidopsis plants were sprayed with a range of doses from 1.56-25 g/ha of different HPPD-inhibiting herbicides and injury evaluations were taken two weeks after treatment (FIG. 4). As depicted in Table 8, control plants were severely injured by all doses of herbicides applied, with at least 58% of leaf material being damaged at the lowest application rate and 100% leaf damage at the second application rate.

[5] = tested on: transgenic Arabidopsis plants (T2) SoHPPD Q317H (short); test: Greenhouse spray test, injury evaluation; format: in vivo, Arabidopsis thaliana; settings: 14 DAT
Experimental: as §10, §11, §12, §13

[6] = tested on: transgenic Arabidopsis plants (T2) SoHPPD F363I (short); test: Greenhouse spray test, injury evaluation; format: in vivo, Arabidopsis thaliana; settings: for Injury: 14 DAT; for average damage: highest application rate, average of events
Experimental: as §10, §11, §12, §13

[7] = tested on: transgenic Arabidopsis plants (T2) SoHPPD I419V (short); test: Greenhouse spray test, injury evaluation; format: in vivo, Arabidopsis thaliana; settings: 14 DAT
Experimental: as §10, §11, §12, §13

[8] = apparent michaelis constant, substrate inhibition model, read-out: Km (4-HPP)
[9] = apparent, from Vmax assuming 100% purity

Sequence of Scenedesmus HPPD (Seq ID: 2) (A0A383WMN4 entry or part of it N195D): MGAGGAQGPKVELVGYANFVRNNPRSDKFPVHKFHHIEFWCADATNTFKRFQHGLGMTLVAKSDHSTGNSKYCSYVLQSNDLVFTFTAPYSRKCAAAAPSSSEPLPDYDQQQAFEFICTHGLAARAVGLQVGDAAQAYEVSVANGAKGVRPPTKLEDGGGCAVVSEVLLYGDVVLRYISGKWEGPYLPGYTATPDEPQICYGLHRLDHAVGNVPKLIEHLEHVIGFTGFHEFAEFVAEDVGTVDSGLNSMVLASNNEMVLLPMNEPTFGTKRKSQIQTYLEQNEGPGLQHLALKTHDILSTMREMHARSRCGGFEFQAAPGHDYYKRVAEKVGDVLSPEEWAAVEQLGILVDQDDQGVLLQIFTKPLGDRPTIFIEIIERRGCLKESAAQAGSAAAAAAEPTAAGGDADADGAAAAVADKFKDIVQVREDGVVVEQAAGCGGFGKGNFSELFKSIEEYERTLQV

`CN(c1c(Cl)ccc(C2=C(O)c3ncccc3C(C)(C)S2(=O)=O)c1Cl)S(C)(=O)=O` [Inhibitor 3, N-[2,6-dichloro-3-(8-hydroxy-5,5-dimethyl-6,6-dioxo-thiopyrano[4,3-b]pyridin-7-yl)phenyl]-N-methyl-methanesulfonamide] gave a Ki [1] of 110 nM and a Ki [2] of 580 nM.
In the case of `O=C(O)C(=O)Cc1ccc(O)cc1` [Inhibitor 4-HPP, 4-hydroxyphenylpyruvate], the Km [1, 8] is reported as 160 µM, the kcat [1, 9] is reported as 6 s⁻¹ and the Km [2, 8] is reported as 89 µM. For the same compound, the kcat [2, 9] was 17 s⁻¹, the Km [3, 8] was 13 µM and the kcat [3, 9] was 12.9 s⁻¹.
`CSc1c(Cl)cc(F)c(C(=O)Nc2nnnn2C)c1Cl` [Inhibitor 7, 2,4-dichloro-6-fluoro-3-methylsulfanyl-N-(1-methyltetrazol-5-yl)benzamide] gave an Injury ([4]; 1.56 g ai/ha) of 88%, an Injury ([4]; 6.25 g ai/ha) of 100% and an Injury ([4]; 25 g ai/ha) of 100%. The Injury ([5]; Event B, 1.56 g ai/ha) was 0%, the Injury ([5]; Event B, 6.25 g ai/ha) was 18% and the Injury ([5]; Event B, 25 g ai/ha) was 78%. For the same compound, the Injury ([5]; Event C, 1.56 g ai/ha) was 0%, the Injury ([5]; Event C, 6.25 g ai/ha) was 8% and the Injury ([5]; Event C, 25 g ai/ha) was 73%. It also gave an Injury ([6]; Event B, 1.56 g ai/ha) of 0%, an Injury ([6]; Event B, 6.25 g ai/ha) of 5% and an Injury ([6]; Event B, 25 g ai/ha) of 0%. The Injury ([6]; Event C, 1.56 g ai/ha) was 0%, the Injury ([6]; Event C, 6.25 g ai/ha) was 0% and the Injury ([6]; Event C, 25 g ai/ha) was 0%. The average damage [6] was “no damage”, the Injury ([7]; Event G, 1.56 g ai/ha) was 0% and the Injury ([7]; Event G, 6.25 g ai/ha) was 28%. It also gave an Injury ([7]; Event G, 25 g ai/ha) of 40%, an Injury ([7]; Event H, 1.56 g ai/ha) of 5% and an Injury ([7]; Event H, 6.25 g ai/ha) of 53%. It also gave an Injury ([7]; Event H, 25 g ai/ha) of 93%.
Compound `CSc1c(C(F)(F)F)ccc(C(=O)Nc2nnnn2C)c1Cl` [Inhibitor 11, 2-chloro-3-methylsulfanyl-N-(1-methyltetrazol-5-yl)-4-(trifluoromethyl)benzamide] has an Injury ([4]; 1.56 g ai/ha) of 100%, an Injury ([4]; 6.25 g ai/ha) of 100% and an Injury ([4]; 25 g ai/ha) of 100%. It also gave an Injury ([5]; Event B, 1.56 g ai/ha) of 40%, an Injury ([5]; Event B, 6.25 g ai/ha) of 99% and an Injury ([5]; Event B, 25 g ai/ha) of 100%. The Injury ([5]; Event C, 1.56 g ai/ha) was 15%, the Injury ([5]; Event C, 6.25 g ai/ha) was 79% and the Injury ([5]; Event C, 25 g ai/ha) was 100%. For the same compound, the Injury ([6]; Event B, 1.56 g ai/ha) was 0%, the Injury ([6]; Event B, 6.25 g ai/ha) was 0% and the Injury ([6]; Event B, 25 g ai/ha) was 15%. For the same compound, the Injury ([6]; Event C, 1.56 g ai/ha) was 8%, the Injury ([6]; Event C, 6.25 g ai/ha) was 0% and the Injury ([6]; Event C, 25 g ai/ha) was 5%. The average damage [6] was 10%, the Injury ([7]; Event G, 1.56 g ai/ha) was 58% and the Injury ([7]; Event G, 6.25 g ai/ha) was 83%. The Injury ([7]; Event G, 25 g ai/ha) was 100%, the Injury ([7]; Event H, 1.56 g ai/ha) was 43% and the Injury ([7]; Event H, 6.25 g ai/ha) was 100%. The Injury ([7]; Event H, 25 g ai/ha) was 100%.
